In patent publication US20160038526A1, “TREATMENT OF PROSTATE CANCER” (THOMAS JEFFERSON UNIVERSITY, priority 2012, published 2016):
Entries after “also recorded” stand apart in the source; their conditions may differ.

Columns and labels:
HepG2 (hepatocellular) = assay: Cell viability assay, HepG2; assay type: cell-based
DU145 cells = assay: Cell viability, MTS metabolic activity assay, DU145; assay type: cell-based, human; conditions: DU145, 72 hours
Method: (§1) CWR22Rv1 prostate cancer cells were treated with N6BAP or the control compound C5 (Ctrl) at 25 μM concentration or vehicle for 24 h. Following trypan blue exclusion, the attached viable vs. de-attached dead cells were counted. […] The bars indicate mean±SD of triplicate wells. In another assay, CWR22Rv1, LNCaP and DU145 cells were treated with N6BAP, the control compound C5 (Ctrl) or vehicle at indicated concentrations. The fraction of alive cells was determined by MTS ([…]) metabolic activity assay (CellTiter 96® AQueous Assay kit). The results are shown in FIGS. 9C, 9D and 9E, respectively.

[1] = test system: HCT116 human liver cancer cells; assay: Cell viability assay, HCT116; assay type: cell-based
Method: as §1
The procedure of Example 9 was followed, substituting cells of the following solid tumor cell lines for the cells treated in Example 9: A549 human lung cancer cells, CAPAN human pancreatic cancer cells, T47D human breast cancer cells, […], A2058 human melanoma and COS-7 monkey fibroblast cell lines.

Stat5b = target: T1, Stat5b (Homo sapiens, UniProt P51692); assay: Stat5b transcriptional activity, β-casein promoter luciferase reporter gene assay in PC-3 cells; assay type: cell-based; conditions: 1 hour pretreatment, 10 nM hPrl for 16 hours
T1 construct: expressed in transfected cells; host or cells: PC-3 (human prostate cancer cell line)
Method: Cells of the human prostate cell line PC-3 were plated into 96-well plate at the density of 2×10^5 per well. After 24 hours of plating, cells were transiently co-transfected using FuGENE6 (Roche) with 0.25 μg of each of pStat5a or pStat5b, pPrlR (prolactin receptor) plasmids, 0.5 μg of pBeta-casein-luc and 0.025 μg of pRL-TK (Renilla luciferase) plasmids as an internal control. After another 24 hours of transfection, the cells were starved in serum-free medium for 8 hours, pretreated with N^6-benzyladenosine-5′-monophosphate (“N6BAP”), or one of five control compounds (designated “C3” through “C7”) of similar molecular weight but unrelated chemical structure to N6BAP), for 1 hour, and then stimulated with 10 nM human prolactin (hPrl) in the serum-free medium for additional 16 hours. The lysates were assayed for firefly and Renilla luciferase activities using the Dual-Luciferase reporter assay system (Promega). Three independent experiments were carried out in triplicate. The firefly luciferase activity was normalized to the Renilla luciferase activity of the same sample, and the mean was calculated from the parallels. From the mean values of each independent run, the overall mean and its standard deviation (S.D.) were calculated.

T1 sequence (P51692 whole entry, species assumed): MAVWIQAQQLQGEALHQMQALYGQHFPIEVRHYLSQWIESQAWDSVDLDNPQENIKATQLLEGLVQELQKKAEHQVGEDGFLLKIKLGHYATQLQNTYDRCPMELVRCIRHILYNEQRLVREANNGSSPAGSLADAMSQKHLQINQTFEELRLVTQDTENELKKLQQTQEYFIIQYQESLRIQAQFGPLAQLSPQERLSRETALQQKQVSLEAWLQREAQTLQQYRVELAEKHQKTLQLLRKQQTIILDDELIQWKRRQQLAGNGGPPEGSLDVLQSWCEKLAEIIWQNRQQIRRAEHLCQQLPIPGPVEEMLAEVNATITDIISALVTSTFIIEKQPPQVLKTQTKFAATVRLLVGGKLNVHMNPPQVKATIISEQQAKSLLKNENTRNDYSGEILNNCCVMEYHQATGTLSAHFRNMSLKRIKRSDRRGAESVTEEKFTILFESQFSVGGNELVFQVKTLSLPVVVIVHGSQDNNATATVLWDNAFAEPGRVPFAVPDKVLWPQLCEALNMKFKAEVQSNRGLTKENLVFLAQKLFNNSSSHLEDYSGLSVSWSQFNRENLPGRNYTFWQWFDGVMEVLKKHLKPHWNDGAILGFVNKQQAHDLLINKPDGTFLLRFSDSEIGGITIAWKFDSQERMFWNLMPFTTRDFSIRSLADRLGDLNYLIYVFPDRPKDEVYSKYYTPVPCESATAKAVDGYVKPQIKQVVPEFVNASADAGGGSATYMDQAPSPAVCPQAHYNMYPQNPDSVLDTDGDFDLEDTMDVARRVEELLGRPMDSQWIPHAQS

## O=P(O)(O)OC[C@H]1O[C@@H](n2cnc3c(NCc4ccccc4)ncnc32)[C@H](O)[C@@H]1O [N6BAP, N^6-benzyladenosine-5′-monophosphate]
HepG2 (hepatocellular)
  cell viability: did not affect the viability
DU145 cells
  number of viable cells: decreases the number of viable cells
[1]
  cell viability: did not affect the viability
Stat5b
  transcriptional activity of Stat5b on the β-casein gene promoter: inhibited Stat5a and Stat5b transcriptional activity in a concentration-dependent manner; also recorded: effectively blocks the transcriptional activity
